Assays:
USP8 Rhod domain = target: T1, USP8 Rhod domain (Homo sapiens, UniProt P40818); assay: SPOT array of predicted peptides from known interactors, USP8 Rhod domain; type: binding; details: Rhod-Peptide screening, SPOT array of predicted peptides; KIAA1614 positive control = 100
T1 construct: USP8 Rhod (174–317) (UniProt: P40818); GST (cleaved yes); made in house; host or cells: Escherichia coli BL21-Gold (DE3)
T1 sequence (P40818 174-317): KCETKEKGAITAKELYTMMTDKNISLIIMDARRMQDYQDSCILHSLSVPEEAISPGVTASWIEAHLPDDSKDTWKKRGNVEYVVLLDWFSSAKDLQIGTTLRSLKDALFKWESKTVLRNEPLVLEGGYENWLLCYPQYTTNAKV
From the text: The results therefore support that the USP8 Rhod domain binds to two distinct types of motifs (Fig. 4A, B). We used the motifs to scan for matching motifs in previously reported interactors using the SLiMSearch algorithm (Supplementary Table S8 A). As there was no clear match for the TET3-type motif except from only one hit, we focused on the KIAA1614-type motif. […] Both TP63 and USP21 are previously reported USP8 substrates, and the interactions may potentially contribute to substrate targeting. […] As the SHANK3 peptides (351-[…]−365 and 392-[…]−406) are closely located in the primary structure of SHANK3, it is tempting to speculate that both motifs contribute to the interactions between the full-length proteins by increasing the local concentration of binding motifs. […] Taken together, we find that the USP8 Rhod domain is a peptide binding domain that can be bound by peptides of two distinct types of motifs, with the Rx[LI]xGxxxPxxL motif and variants thereof being found in known USP8 substrates.
SPOT array alanine scanning of peptides was designed, and cellulose-bound peptides were synthesized using Fluorenylmethyloxycarbonyl (Fmoc) solid phase synthesis with a MultiPep synthesizer (INTAVIS Peptide Services, Tübingen, Germany). The membranes of predicted peptides were purchased by JPT Peptide Technologies (Berlin, Germany). The membranes were incubated with blocking buffer containing 5% skim milk in TBST (50 mM Tris, 150 mM NaCl pH 7.5, 0.05% Tween-20) for two hours at room temperature. The blocked membranes were incubated with GST-tagged proteins (100 µM for MIT domain and 150 µM for the Rhodanese domain) in blocking buffer overnight at 4 °C. After rinsed with TBST the membranes were incubated with HRP-conjugated anti-GST antibody (Cytiva, RPN1236; 1:3000 dilution) in blocking buffer for 1 h at 4 °C and subsequently rinsed with TBST to remove any excess antibody. The ECL reagent (Clarity Max Western ECL substrate, 1705062, BioRad) was used for chemiluminescence read-out with the ChemiDoc Imaging system (BioRad). The images were analysed with Fiji (ImageJ2 version 2.9.0). SLiMSearch4 was used to design the peptide arrays with known interactors predicted to contain the motifs. The background signal intensity was subtracted, and the corrected signal intensities were normalized to the positive control and presented as percentage.

USP8 MIT domain [1] = assay: SPOT array of predicted peptides from known interactors, USP8 MIT domain; type: binding, human; details: for Percentage (%) normalized to highest intensity and corrected for background: SPOT array, GST-tagged MIT 100 µM, overnight 4 °C, chemiluminescence, highest intensity = DNAJB6; for Percentage (%): Supplementary Fig. 4B, normalized to the highest intensity and corrected for background
From the text: To further assess the SLiM-based interactions of the USP8 MIT domain, we designed a peptide array tiling 24 potential binding sites in previously reported USP8 interactors. We used SLiMSearch to search for peptides that contain shorter or longer matches to the motif (Supplementary Table S4A). […] The DNAJB6_118 - 130 peptide was predicted as a binder based on a partial DFx{2,3}R motif. The DNAJB6-USP8 interaction is supported by previous GST-pulldown experiments and colocalization of the two proteins in male mouse germ cells, and the interaction is thought to be of importance to the protein quality control to yield functional spermatozoa. In the case of the CDH1_863 - 877 peptide it was predicted as USP8 MIT ligand based on the presence of an RFxxL motif. The previous support of the CDH1-USP8 interaction is based on proximity labelling mass spectrometry, and our results thus provide evidence for a binary interaction between the two proteins and define a binding site. To confirm that the motifs used to predict the interactions were of importance for binding we designed an alanine scanning peptide SPOT array analysis of the DNAJB6_118 - 130 and the CDH1_863 - 877 peptides. […] In summary, we find that the USP8 MIT domain binds to a MIM1-like motif that can be expressed by [[…]], as well as degenerate variants thereof. […] The membranes of predicted peptides were purchased by JPT Peptide Technologies (Berlin, Germany). The membranes were incubated with blocking buffer containing 5% skim milk in TBST (50 mM Tris, 150 mM NaCl pH 7.5, 0.05% Tween-20) for two hours at room temperature. The blocked membranes were incubated with GST-tagged proteins (100 μM for MIT domain and 150 μM for the Rhodanese domain) in blocking buffer overnight at 4 °C. After rinsed with TBST the membranes were incubated with HRP-conjugated anti-GST antibody (Cytiva, RPN1236; 1:3000 dilution) in blocking buffer for 1 h at 4 °C and subsequently rinsed with TBST to remove any excess antibody. The ECL reagent (Clarity Max Western ECL substrate, 1705062, BioRad) was used for chemiluminescence read-out with the ChemiDoc Imaging system (BioRad). The images were analysed with Fiji (ImageJ2 version 2.9.0). […] used to design the peptide arrays with known interactors predicted to contain the motifs. The background signal intensity was subtracted, and the corrected signal intensities were normalized to the positive control and presented as percentage.

USP8 MIT domain [2] = assay: Proteomic peptide-phage display (ProP-PD) selection against USP8 MIT domain; type: binding, human; design: Confidence: scale not given here
Protocol: We explored the peptide-binding of the USP8 MIT domain by using the purified GST-tagged MIT domain as bait in proteomic peptide-phage display (ProP-PD) selections and a library designed to display the predicted unstructured regions of the human proteome. The peptide-coding regions of the binding-enriched phage pools were analysed by next-generation sequencing (NGS). After filtering for high confidence ligands, ten ligands remained (Fig. 1B; Supplementary Table S1). None of the ten identified protein-protein interactions had been previously reported, based on comparison with the information available in IntAct, HIPPIE and BioGrid (February 2025). Of the USP8 interacting proteins found, the D site-binding protein (DBP), which is a clock-controlled transcription factor, appears as an interesting ligand as USP8 has been reported to be involved in controlling the circadian rhythm. Also, the CCDC88A-encoded protein Girdin is an interactor of potential biological relevance as it is a scaffolding protein involved in the EGFR pathway which USP8 is known to regulate. At the motif level, there was no shared consensus motif among the ten peptide ligands. However, by manual inspection we noticed that four of the peptides contained a shared [LI]xxR[IY]xxL sequence, which appears to be a variation of the [DE]xxLxxRLxxL[KR] MIM1 motif described in the Eukaryotic Linear Motif resource (ELM) (Fig. 1B). We performed a SPOT array alanine scanning analysis in which peptides are synthesised on a membrane, and where each amino acid position of the peptide is mutated to alanine (or glycine if alanine is in the wild type peptide) to evaluate the effect of the amino acid residues in binding. We tested two peptides containing the apparent MIM1-like motif, one from Girdin (Girdin1192 − 1207) and one from the histone-lysine N-methyltransferase SETD1B (SETD1B492 − 507). […] AlphaFold3 (AF3) modelling of the four peptides with the variant MIM1 motif and the MIT domain docked the peptides with high confidence (ipTM scores: HIVEP1_741 − 756: 0.87, Girdin1192 − 1207: 0.85, MLPH481 − 496: 0.82, SETD1B492 − 507: 0.75) at the expected MIM1 binding pocket (Fig. 1D). […] However, the USP8 MIT selection was dominated (more than 94% of NGS counts) by two peptides that lack an apparent MIM1 motif. The two peptides were from the EF-hand calcium-binding domain-containing protein 12 (EFCAB12_1 − 16: […]) and from DBP (DBP116 − 131: […]) (Fig. 1B). […] In comparison to this, the EFCAB12_1 − 16 peptide shares a potential Dx[YF]xxxH[SG] motif with the DBP116 − 131 (Fig. 1B). […] The AF3 model of DBP116 − 131 peptide supports the interaction of D120 of the DBP116 − 131 peptide with the residues K74 and N71 in the MIT domain (Fig. 1G), emphasizing the significance of the aspartic acid at this position. […] Of them, two peptides (SYNE2_853 − 868 and PKNOX1_56 − 71) where placed in the same binding site as the Girdin and DBP peptides with high confidences by AF3 modelling (ipTM 0.92 and 0.74; Supplementary Fig. S3).
Four rounds of phage selections were carried out using the second generation human disorderome library or the constructed deep mutational scanning library. At least three individual replicates were used for each bait protein. 10 µg of GST-tagged proteins or GST control (diluted in PBS from the stock of proteins kept in the purification elution buffer) were immobilized in 100 µL PBS on a 96-well MaxiSorp (Nunc) plate overnight at 4 °C. The plates were incubated with blocking buffer (with 0.5% BSA in PBS) for 1 h at 4 °C followed by washing with 0.05% Tween 20 in PBS four times. The naïve phage library (10^11 CFU) was diluted in 1/5th volume PEG/NaCl (20% PEG-8000, 0.4 M NaCl) and 1X PBS, incubated on ice for 10 min and centrifuged at 10,000 [drawing 3] g for 10 min. The pellet was resuspended in the volume of PBS (100 µL/ well). […]

Sequence | Percentage (%) normalized to highest intensity and corrected for background (USP8 Rhod domain) [%] | Percentage (%) normalized to highest intensity and corrected for background (USP8 MIT domain [1]) [%] | Percentage (%) (USP8 MIT domain [1]) | also measured
FDQPHPQGLLPCQPQ | 4.4 |  |  | 
PKPPRPASLLRHAPH | 5 |  |  | 
GPSTSRILSGWEGPS | -0.117 |  |  | 
SWAAGPGSLLAWLIL | 1.45 |  |  | 
DPSNNFRLHNGRS [CFLAR, CASP8 and FADD-like apoptosis regulator peptide] |  | 31 | 31 | 
AGAALLALLAALCP [EGFR, Epidermal growth factor receptor peptide] |  | 6 | 6 | 
PQYTNLGLLNSMDQ [TP63 A14, Tumor protein 63 peptide, array position A14] |  | 8 | 8 | 
QAAIALSLLESPKI [USP28, Ubiquitin carboxyl-terminal hydrolase 28 peptide] |  | 1.29 | 1 | 
TEQETLALLEVKRS [TMEM79, Transmembrane protein 79 peptide] |  | -4 | -4 | 
RPHDIFRQRKQNT [VIRMA, Protein virilizer homolog peptide] |  | 6.6 | 7 | 
SRGLQLLLLSCAYS [CD83, CD83 antigen peptide] |  | 5.58 | 6 | 
SQKELESYMMRAQQLL [SYNE2_853 − 868, Nesprin-2 peptide] |  | -4 | -4 | NGS counts (%) (USP8 MIT domain [2]; ProP-PD, human disorderome library, GST-tagged MIT bait, four rounds of selection, percent of NGS counts associated with each peptide, Fig. 1B): 0.43%; max_counts (USP8 MIT domain [2]; Total NGS counts): 21; Confidence (USP8 MIT domain [2]; calculated based on four metrics: overlapping peptides, replicated peptides, motif match, peptide counts): 2; Counts (USP8 MIT domain [2]; fraction of NGS counts for a selection): 0.0007925; Promiscuity (USP8 MIT domain [2]; number of baits selections where the peptide has been observed, calculated on the domain level): 1; Replicates (USP8 MIT domain [2]; number of screens against the bait protein in which the peptide has been found): 3; Specificity (USP8 MIT domain [2]; proportion for the current bait of the total NGS read counts of the peptide for all baits screened with this library): 1
QGPALRYFQLPPRAA [SHANK1 B6, SHANK1 peptide, array position B6] |  | 7 | 7 | 
APPSLLLLLLAQLV [FZD5, Frizzled-5 peptide] |  | 24 | 24 | 

Continued, in another order:

Percentage (%) normalized to highest intensity and corrected for background (USP8 Rhod domain) [%] | Sequence | Percentage (%) normalized to highest intensity and corrected for background (USP8 MIT domain [1]) [%] | Percentage (%) (USP8 MIT domain [1]) | also measured
0.0399 | PRPTAPKPLLPRREE |  |  | 
-0.581 | ASQAVPTFLMATAAA |  |  | 
-1.42 | PIPSSSPPPLSSPL |  |  | 
-1.37 | PEKGARSLAGPPPHF |  |  | 
-0.836 | PGPPYPPQLMTPSKL |  |  | 
2.19 | HPNTPRGLSGWEGPS |  |  | 
7 | SYAKRRRLAGPSGLA |  |  | 
100 | GMERVLGGLSSPLRLL [KIAA1614 Positive control] |  |  | 
-1.21 | AQPPAPGVLMAQPLT |  |  | 
11 | CGNQERKLEGSINDI |  |  | 
6 | SCISEWEQKIPTYN |  |  | 
0.93 | DPSAPPSLLLLLLAQ |  |  | 
5.44 | IATYRRLLEGEEHRL |  |  | 

Reference: article PMC12057046, “Elucidation of short linear motif-based interactions of the MIT and rhodanese domains of the ubiquitin-specific protease 8” (Biology Direct, 2025)
